Results from PMC10919040, “Exploration of newly synthesized azo-thiohydantoins as the potential alkaline phosphatase inhibitors via advanced biochemical characterization and molecular modeling approaches” (BMC Chemistry, 2024).

System: not given
Test: not given
Conditions: not given

Row | melting point [°C] | SMILES
1 | 271 to 273 | O=C1CNC(=S)N1/N=C/c1cc(/N=N/c2ccc([N+](=O)[O-])cc2)ccc1O [Compound 7f, 3-((E)-(2-hydroxy-5-((E)-(4-nitrophenyl)diazenyl)benzylidene)amino)-2-thioxoimidazolidin-4-one]

Molecular target: intestinal alkaline phosphatase (IAP) (Bos taurus, UniProt P19111)
Sequence (P19111 20-533): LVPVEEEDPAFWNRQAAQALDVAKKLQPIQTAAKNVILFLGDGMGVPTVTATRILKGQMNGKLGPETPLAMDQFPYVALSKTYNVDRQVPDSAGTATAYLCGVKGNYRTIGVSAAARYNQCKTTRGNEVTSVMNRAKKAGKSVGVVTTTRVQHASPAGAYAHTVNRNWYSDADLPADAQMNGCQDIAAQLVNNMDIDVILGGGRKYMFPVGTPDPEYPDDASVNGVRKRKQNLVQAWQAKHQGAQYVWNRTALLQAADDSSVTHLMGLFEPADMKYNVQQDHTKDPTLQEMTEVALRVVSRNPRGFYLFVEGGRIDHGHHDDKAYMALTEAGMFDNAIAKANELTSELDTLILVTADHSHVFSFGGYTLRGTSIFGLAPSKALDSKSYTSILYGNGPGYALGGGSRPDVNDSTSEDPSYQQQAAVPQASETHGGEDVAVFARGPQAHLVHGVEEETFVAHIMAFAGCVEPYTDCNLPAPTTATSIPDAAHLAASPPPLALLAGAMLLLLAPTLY
Test: Alkaline phosphatase inhibition assay (spectrophotometric, p-NPP substrate)
Type: biochemical, calf
Conditions: p-NPP 0.5 mM, pH 9.5, 37 °C, Mean ± SEM
Description: The measurement of intestinal alkaline phosphatase (IAP) activity was conducted using a spectrophotometric method, as described earlier. […] Additionally, 10 µL of the compound was added to the mixture. The mixture was subjected to pre-incubation with 5 µL of IAP (0.025 U/mL) for a duration of 10 min. The reaction was started by introducing 10 µL of the substrate, which was 0.5 mM p-NPP (para nitrophenyl phosphate disodium salt). Following the addition, the assay underwent an incubation period of 30 min at a temperature of 37 °C. The change in absorbance resulting from the release of p-nitrophenolate was monitored at a wavelength of 405 nm using a Thermo Scientific™ Multiskan GO™ microplate reader. The experiment was repeated three times, with each repetition being done in triplicate. […] The calculation of inhibition activity and IC50 values were carried out as discussed earlier.

Row | IC50 [µM] | SMILES
2 | 0.836 ± 0.097 | O=C1CNC(=S)N1/N=C/c1cc(/N=N/c2ccc([N+](=O)[O-])cc2)ccc1O [Compound 7f, 3-((E)-(2-hydroxy-5-((E)-(4-nitrophenyl)diazenyl)benzylidene)amino)-2-thioxoimidazolidin-4-one]
3 | 0.308 ± 0.065 | O=C(O)c1ccc(/N=N/c2ccc(O)c(/C=N/N3C(=O)CNC3=S)c2)cc1 [Compound 7e, 4-((E)-(4-hydroxy-3-((E)-((5-oxo-2-thioxoimidazolidin-1-yl)imino)methyl)phenyl)diazenyl)benzoic acid]
4 | 80.2 ± 1.1 | N[C@@H](Cc1ccccc1)C(=O)O [L–Phenyl alanine, reference compound]

The next lines start with the compound.

Row | SMILES | IC50 [µM]
5 | O=C1CNC(=S)N1/N=C/c1cc(/N=N/c2ccccc2)ccc1O [Compound 7a, 3-((E)-(2-hydroxy-5-((E)-phenyldiazenyl)benzylidene)amino)-2-thioxoimidazolidin-4-one] | 4.85 ± 0.985
6 | O=C1CNC(=S)N1/N=C/c1cc(/N=N/c2cccc(Cl)c2Cl)ccc1O [Compound 7c, 3-((E)-(5-((E)-(2,3-dichlorophenyl)diazenyl)-2-hydroxybenzylidene)amino)-2 thioxoimidazolidin-4-one] | 3.07 ± 0.687
7 | O=C1CNC(=S)N1/N=C/c1cc(/N=N/c2ccc(S(=O)(=O)O)cc2)ccc1O [Compound 7b, 4-((E)-(4-hydroxy-3-((E)-((5-oxo-2-thioxoimidazolidin-1-yl)imino)methyl)phenyl)-diazenyl)benzenesulfonic acid] | 1.28 ± 0.214
8 | Cc1c(Cl)cccc1/N=N/c1ccc(O)c(/C=N/N2C(=O)CNC2=S)c1 [Compound 7d, 3-((E)-(5-((E)-(3-chloro-2-methylphenyl)diazenyl)-2-hydroxybenzylidene)amino)-2-thioxoimidazolidin-4-one] | 3.15 ± 0.853
